Experimental data: patent US20190152905A1 (priority 2016, published 2019)
Values joined by “and” are separate entries in the source; they are usually repeats but may differ in a detail not shown here. Equal values may be shown once.

Tests used:
[1] = tested on: plasma; test: Anticoagulant activity: prothrombin time (PT), Sysmex CA-1500; assay type: biochemical, human; settings: 20 μl sample + 80 μl plasma, number in label = g/dL
Experimental: (§1) Antithrombotic (anticoagulant) activity was evaluated according to a previously reported method. Each of thromborel S, actin and thrombin, which are reagents for Sysmex CA-1500 for analysis of PT, aPTT and TT, was mounted in Sysmex CA-1500 (Siemens Healthcare, Germany) which is an automated blood coagulation test device. According to the automated procedure of the test device, clotting time (sec) (prothrombin time (PT), activated partial thromboplastin time (aPTT) and thrombin time (TT)) was measured. A sufficient amount of a sample for each of the three analyses was about 400 uL of an 80:20 mixture of plasma and a test substance.
(§2) The isolated plasma was used in an experiment in a fresh state within 5-6 hours.
(§3) In this experiment, for the relative comparison of the measured clotting time (sec) (PT, aPTT and TT) between test groups, clotting time prolongation (%) relative to triple distilled water (purified water) that is a normal control test sample was statistically analyzed. For statistical analysis, the […] anticoagulant activities of test materials were comparatively analyzed using SPSS IBM version 21.0 by one-way ANOVA at p<0.05, and significance comparison between groups was performed by Duncan's test.
(§4) The aspirin solution was immediately used at room temperature in a light-shielded state or was cold-stored.
(§5) As a control, aspirin was used, and as a vehicle control, triple distilled water (purified water) was used instead of the sample.

[2] = tested on: plasma; test: Anticoagulant activity: activated partial thromboplastin time (aPTT), Sysmex CA-1500; assay type: biochemical, human; settings: 20 μl sample + 80 μl plasma, number in label = g/dL
Experimental: as §1, §2, §3, §4, §5

[3] = tested on: plasma; test: Anticoagulant activity: thrombin time (TT), Sysmex CA-1500; assay type: biochemical, human; settings: 20 μl sample + 80 μl plasma, number in label = g/dL
Experimental: as §1, §2, §3, §4, §5

[4] = Body weight and body weight gain of high-fat diet mice; assay type: in vivo, mice (C57BL/6); settings: for Body weight / Body weight gain: high-fat diet mice, mean
Experimental: (§6) Using 8-week-old male mice (C57BL/6) (purchased from CoreTech), anti-diabetic candidate materials were evaluated using a GTT (Glucose Tolerance Test) that is a typical method for diagnosis of diabetes.
(§7) Mice were housed at a temperature of 22±2° C. and a relative humidity of 55-60% with 12-hr light/12-hr dark cycles. Five animals were allotted to each group, and mice from the same mother were grouped into one group, because male mice tend to fight together.
(§8) As feed, high-fat diet (60% of calories from fat; Research Diet Inc., New Brunswick, N.J.) and water were fed ad libitum for 10 weeks. Herein, the water fed contained the samples prepared in Examples 1-2 (3), 2-1, 2-4-1, 2-4-2 and 2-5. As a positive control, metformin (M-072, Sigma) (250 mg/kg) was used, and as a control, the samples prepared in Comparative Examples 1-1, 2-3-2, 2-5-1, 2-5-2 and 2-6 were used.
(§9) For reference, each of the samples prepared in Examples 2-4-1, 2-4-2 and 2-5 was set to the amount to be taken by an adult (60 kg) for 3 days, and the amount was converted into a mouse dose (12-fold/kg, see the US NIH guidance), thereby preparing animal feed. Namely, the amount to be taken by an adult (60 kg) for 3 days is 180-day dose/kg, which corresponds to 15-day dose/kg for mice. Thus, the amount corresponds to 750-day dose/mouse (20 g), because the average weight of mice is about 20 g. Thus, one mouse was allowed to take 1/750 of the prepared sample each day.
(§10) In addition, each of the samples prepared in Examples 1-2 (3) and 2-1 was set to the amount to be taken by an adult (60 kg) for 2 days, and the amount was converted into a mouse dose (12-fold/kg, see the US NIH guidance), thereby preparing animal feed. Namely, the amount to be taken by an adult (60 kg) for 2 days is 120-day dose/kg, which corresponds to 10-day dose/kg for mice. Thus, the amount corresponds to 500-day dose/mouse (20 g), because the average weight of mice is about 20 g. Thus, one mouse was allowed to take 1/500 of the prepared sample each day.
The diet intake and the body weight gain were measured weekly for 8 weeks. The body weight and the diet intake were measured immediately before first drug administration, and then measured at one-week intervals.
(§11) Meanwhile, experimental analysis results were expressed as mean±S.E.M., and the significance between test groups was statistically processed using Student T-TEST, and then the significance was verified at *P<0.05.

[5] = tested on: male mice (C57BL/6), high-fat diet; test: Glucose tolerance test (GTT) at 8 weeks of high-fat diet feeding; assay type: in vivo
Experimental: as §6, §7, §8, §9, §10
At 8 weeks of high-fat diet feeding, a glucose tolerance test (GTT) was performed. For 8 hours for the test, mice were fasted. Then, blood was sampled from the tail vein, and initial blood glucose levels were measured with a blood glucose meter (AUTO-CHEK, Diatech Korea). Then, glucose was administered intraperitoneally to the mice at a concentration of 1 g/kg, and after 30 min, 60 min, 90 min and 120 min, blood was sampled from the mice, followed by measurement of blood glucose levels (each group consisting of five animals).
as §11

SMILES: O=C[C@H](O)[C@@H](O)[C@H](O)[C@H](O)CO [Gluc, glucose]
- PT clotting time prolongation relative to purified water, Mean ([1]; Table 19, listed as Gluc 6.2): 1.69%
- PT clotting time prolongation relative to purified water, Mean ([1]; Table 19, listed as Gluc 12.4): 2.26%
- aPTT clotting time prolongation relative to purified water, Mean ([2]; Table 19, listed as Gluc 6.2): 2.22%
- aPTT clotting time prolongation relative to purified water, Mean ([2]; Table 19, listed as Gluc 12.4): 2.89%
- TT clotting time prolongation relative to purified water, Mean ([3]; Table 19, values excluding one sample showing an extreme value, listed as Gluc 6.2): 16.24%
- TT clotting time prolongation relative to purified water, Mean ([3]; Table 19, values excluding one sample showing an extreme value, listed as Gluc 12.4): 27.82%

SMILES: O=C(CO)[C@@H](O)[C@H](O)[C@H](O)CO [Fruc, fructose]
- PT clotting time prolongation relative to purified water, Mean ([1]; Table 20): 0.54%
- aPTT clotting time prolongation relative to purified water, Mean ([2]; Table 20): −0.20%
- aPTT clotting time prolongation relative to purified water, Mean ([2]; Table 20, listed as Fruc 12.4): 0.58%
- TT clotting time prolongation relative to purified water, Mean ([3]; Table 20, listed as Fruc 6.2): 13.19%
- TT clotting time prolongation relative to purified water, Mean ([3]; Table 20, listed as Fruc 12.4): 30.07%

SMILES: NCCS(=O)(=O)O [Tau, taurine]
- Body weight gain, Mean ([4]; HFD mice, sample in drinking water, 8 weeks): 9.52 g
- body weight gain compared to the group administered with high-fat diet (HFD) alone ([4]; at 8 weeks after high-fat diet feeding, in words): significant reduction in body weight gain
- fasting glucose level ([5]; 8 h fasted, 8 weeks of HFD, in words, comparator in the value): all lower than that of the mice administered with high-fat diet (HFD), and were similar to the blood glucose levels of normal mice
- glucose control ability in GTT ([5]; glucose 1 g/kg i.p., 8 weeks of HFD, in words, comparator in the value): significantly higher than that of the group administered with HFD alone

SMILES: O=C[C@H](O)[C@H](O)[C@H](O)CO [Rib, ribose]
- TT clotting time prolongation relative to purified water, Mean ([3]; Table 19, values excluding one sample showing an extreme value, listed as Rib 5.2): 23.15%
- TT clotting time prolongation relative to purified water, Mean ([3]; Table 19, values excluding one sample showing an extreme value, listed as Rib 10.4): 52.50%

SMILES: CC(=O)Oc1ccccc1C(=O)O [Asp 7.5 mg/ml, aspirin]
- PT clotting time prolongation relative to purified water, Mean ([1]; Table 18): 9.90%
- PT clotting time prolongation relative to purified water, Mean ([1]; Table 19): 17.51%
- PT clotting time prolongation relative to purified water, Mean ([1]; Table 20): 26.02%
- aPTT clotting time prolongation relative to purified water, Mean ([2]; Table 18): 7.31%
- aPTT clotting time prolongation relative to purified water, Mean ([2]; Table 19): 16.28%
- aPTT clotting time prolongation relative to purified water, Mean ([2]; Table 20): 29.82%
- TT clotting time prolongation relative to purified water, Mean ([3]; Table 18): 13.59%
- TT clotting time prolongation relative to purified water, Mean ([3]; Table 19, values excluding one sample showing an extreme value): 20.96%
- TT clotting time prolongation relative to purified water, Mean ([3]; Table 20): 23.95%

SMILES: O=C[C@H](O)[C@@H](O)[C@H](O)CO [Xyl, xylose]
- TT clotting time prolongation relative to purified water, Mean ([3]; Table 18, listed as Xyl 1.04): 2.68%
- TT clotting time prolongation relative to purified water, Mean ([3]; Table 18, listed as Xyl 5.2): 14.59%
- TT clotting time prolongation relative to purified water, Mean ([3]; Table 18, listed as Xyl 7.8): 24.41%

SMILES: O=C[C@@H](O)[C@H](O)[C@H](O)CO [Ara, arabinose]
- TT clotting time prolongation relative to purified water, Mean ([3]; Table 18, listed as Ara 5.2): 13.40%
- TT clotting time prolongation relative to purified water, Mean ([3]; Table 18, listed as Ara 7.8): 22.92%

SMILES: CN(C)C(=N)N=C(N)N [Metformin, metformin]
- Body weight ([4]; 1 week): 21.00 g
- Body weight ([4]; 2 weeks): 22.78 g and 26.344 g
- Body weight gain ([4]; 2 weeks): 3.48 g
- Body weight ([4]; 3 weeks): 23.84 g
- Body weight gain ([4]; 3 weeks): 4.54 g
- Body weight ([4]; 4 weeks): 25.18 g
- Body weight gain ([4]; 4 weeks): 5.88 g and 4.600 g
- Body weight ([4]; 5 weeks): 25.72 g
- Body weight gain ([4]; 5 weeks): 6.42 g
- Body weight ([4]; 6 weeks): 26.34 g
- Body weight gain ([4]; 6 weeks): 7.04 g
- Body weight ([4]; 7 weeks): 27.52 g
- Body weight gain ([4]; 7 weeks): 8.22 g
- Body weight ([4]; 8 weeks): 28.20 g
- Body weight ([4]; Before admis.): 19.30 g
- Weight, Mean ([4]; HFD mice, sample in drinking water, 1 week): 21.00 g
- Weight, Mean ([4]; HFD mice, sample in drinking water, 6 weeks): 26.34 g
- Glucose level, 0 min ([5]; GTT, high-fat diet mice, 0 min (fasting, before administration), mean): 144.20 mg/dL
- Glucose level, 30 min ([5]; GTT, high-fat diet mice, 30 min, mean): 386.40 mg/dL
- Glucose level, 60 min ([5]; GTT, high-fat diet mice, 60 min, mean): 301.40 mg/dL
- Glucose level, 90 min ([5]; GTT, high-fat diet mice, 90 min, mean): 194.40 mg/dL
- Glucose level, 120 min ([5]; GTT, high-fat diet mice, 120 min, mean): 135.20 mg/dL

SMILES: O=C[C@@H](O)[C@@H](O)[C@H](O)[C@H](O)CO [Mann, mannose]
- PT clotting time prolongation relative to purified water, Mean ([1]; Table 20, listed as Mann 3.1): 2.71%
- PT clotting time prolongation relative to purified water, Mean ([1]; Table 20, listed as Mann 6.2): 5.96%
- PT clotting time prolongation relative to purified water, Mean ([1]; Table 20, listed as Mann 12.4): 13.55%
- aPTT clotting time prolongation relative to purified water, Mean ([2]; Table 20, listed as Mann 3.1): 0.65%
- aPTT clotting time prolongation relative to purified water, Mean ([2]; Table 20, listed as Mann 6.2): 1.24%
- aPTT clotting time prolongation relative to purified water, Mean ([2]; Table 20, listed as Mann 12.4): 7.98%
- TT clotting time prolongation relative to purified water, Mean ([3]; Table 20, listed as Mann 3.1): 11.67%
- TT clotting time prolongation relative to purified water, Mean ([3]; Table 20, listed as Mann 6.2): 22.74%
- TT clotting time prolongation relative to purified water, Mean ([3]; Table 20, listed as Mann 12.4): 47.87%
